From ChEMBL document CHEMBL3045593, “Synthesis and Fungicidal Activities of 3-(-Alkoxyiminobenzyl)isoxazole Derivatives” (J Pestic Sci, 1999)

How the values were obtained:
[1] = test system: Blumeria graminis f. sp. tritici; test: Fungicidal activity against Blumeria graminis f. sp. triticii inoculated on wheat seedlings followed by 31.3 ppm compound application 7 days after fungal inoculation assessed as wheat powdery mildew disease controlling activity relative to untreated control; format: functional
[2] = test system: Golovinomyces cichoracearum; test: Fungicidal activity against Golovinomyces cichoracearum in cucumber seedlings assessed as cucumber powdery mildew disease controlling activity at 7.8 ppm applied through preventive application relative to untreated control; format: functional
[3] = test system: Golovinomyces cichoracearum; test: Fungicidal activity against Golovinomyces cichoracearum in cucumber seedlings assessed as cucumber powdery mildew disease controlling activity at 31.3 ppm applied through preventive application relative to untreated control; format: functional
[4] = test system: Blumeria graminis f. sp. tritici; test: Fungicidal activity against Blumeria graminis f. sp. triticii inoculated on wheat seedlings followed by 500 ppm compound application 7 days after fungal inoculation assessed as wheat powdery mildew disease controlling activity relative to untreated control; format: functional
[5] = test system: Blumeria graminis f. sp. tritici; test: Fungicidal activity against Blumeria graminis f. sp. triticii inoculated on wheat seedlings followed by 125 ppm compound application 7 days after fungal inoculation assessed as wheat powdery mildew disease controlling activity relative to untreated control; format: functional
[6] = test system: Golovinomyces cichoracearum; test: Fungicidal activity against Golovinomyces cichoracearum in cucumber seedlings assessed as cucumber powdery mildew disease controlling activity at 500 ppm applied through preventive application relative to untreated control; format: functional
Oculimacula yallundae [7] = test: Fungicidal activity against Oculimacula yallundae inoculated oat seeds followed by transfer of inoculated oat seedlings on foot of wheat seedlings followed by 100 ppm compound spraying assessed as degree of wheat eye spot infection (reference value: 82.9 %); format: functional
Oculimacula yallundae [8] = test: Fungicidal activity against Oculimacula yallundae inoculated oat seeds followed by transfer of inoculated oat seedlings on foot of wheat seedlings followed by 100 ppm compound spraying assessed as wheat eye spot disease control activity relative to untreated control; format: functional
Oculimacula yallundae [9] = test: Fungicidal activity against Oculimacula yallundae inoculated oat seeds followed by transfer of inoculated oat seedlings on foot of wheat seedlings followed by 400 ppm compound spraying assessed as degree of wheat eye spot infection (reference value: 82.9 %); format: functional
[10] = test system: Blumeria graminis f. sp. tritici; test: Fungicidal activity against Blumeria graminis f. sp. triticii inoculated on wheat seedlings followed by 400 ppm compound application 7 days after fungal inoculation assessed as wheat powdery mildew disease controlling activity relative to untreated control; format: functional
[11] = test system: Blumeria graminis f. sp. tritici; test: Fungicidal activity against Blumeria graminis f. sp. triticii inoculated on wheat seedlings followed by 100 ppm compound application 7 days after fungal inoculation assessed as infected leaf area (reference value: 37.8%); format: functional
[12] = test system: Blumeria graminis f. sp. tritici; test: Fungicidal activity against Blumeria graminis f. sp. triticii inoculated on wheat seedlings followed by 100 ppm compound application 7 days after fungal inoculation assessed as wheat powdery mildew disease controlling activity relative to untreated control; format: functional
Oculimacula yallundae [13] = test: Fungicidal activity against Oculimacula yallundae inoculated oat seeds followed by transfer of inoculated oat seedlings on foot of wheat seedlings followed by 400 ppm compound spraying assessed as wheat eye spot disease control activity relative to untreated control; format: functional
[14] = test system: Blumeria graminis f. sp. tritici; test: Fungicidal activity against Blumeria graminis f. sp. triticii inoculated on wheat seedlings followed by 7.8 ppm compound application 7 days after fungal inoculation assessed as wheat powdery mildew disease controlling activity relative to untreated control; format: functional
[15] = test system: Blumeria graminis f. sp. tritici; test: Fungicidal activity against Blumeria graminis f. sp. triticii inoculated on wheat seedlings followed by 400 ppm compound application 7 days after fungal inoculation assessed as infected leaf area (reference value: 37.8%); format: functional
Oculimacula yallundae [16] = test: Fungicidal activity against Oculimacula yallundae assessed as inhibition of mycelial growth; format: functional, organism-based
[17] = test system: Golovinomyces cichoracearum; test: Fungicidal activity against Golovinomyces cichoracearum in cucumber seedlings assessed as cucumber powdery mildew disease controlling activity at 125 ppm applied through preventive application relative to untreated control; format: functional
[18] = test system: Blumeria graminis f. sp. tritici; test: Fungicidal activity against Blumeria graminis f. sp. triticii inoculated on wheat seedlings followed by 125 ppm compound application 7 days after fungal inoculation assessed as infected leaf area (reference value: 37.8%); format: functional

SMILES	Activity [2]	Activity [3]	Activity [4]	Activity [5]	further results
CON=C(c1ccon1)c1ccccc1COc1cc(Cl)ccc1Cl	90%				Activity [1]: 90%
CON=C(c1ccon1)c1ccccc1COc1c(Cl)cccc1Cl		90%	<90%		
CON=C(c1ccon1)c1ccccc1COc1ccc(Cl)c(Cl)c1		90%		90%	
CON=C(c1ccon1)c1ccccc1COc1cc(Cl)cc(Cl)c1Cl			<90%		Activity [6]: 90%
CON=C(c1ccon1)c1ccccc1COc1cccc(C)c1C	90%			90%	
CON=C(c1ccon1)c1ccccc1COc1ccc(C)cc1C	90%			90%	
CON=C(c1ccon1)c1ccccc1COc1cc(C)ccc1C	90%				Activity (Oculimacula yallundae [7]): 36.9%; Activity (Oculimacula yallundae [8]): 56%; Activity (Oculimacula yallundae [9]): 19.8%; Activity [10]: 86%; Activity [11]: 9.3%; Activity [12]: 78%; Activity (Oculimacula yallundae [13]): 76%; Activity [14]: 90%; Activity [15]: 5.8%; EC50 (Oculimacula yallundae [16]): 1.05 ppm
CON=C(c1ccon1)c1ccccc1COc1c(C)cccc1C				90%	Activity [17]: 90%
CON=C(c1ccon1)c1ccccc1COc1ccc(C)c(C)c1		90%		90%	
CON=C(c1ccon1)c1ccccc1COc1cc(C)cc(C)c1C	90%				Activity [14]: 90%; EC50 (Oculimacula yallundae [16]): 3.9 ppm
CON=C(c1ccon1)c1ccccc1COc1ccc(Cl)cc1C	90%				Activity [1]: 90%
Cc1ccc(C)c(OCc2ccccc2C(=NO)c2ccon2)c1			<90%		Activity [17]: 90%
CCON=C(c1ccon1)c1ccccc1COc1cc(C)ccc1C			<90%		Activity [6]: <90%
CCCON=C(c1ccon1)c1ccccc1COc1cc(C)ccc1C			<90%		Activity [6]: <90%
Cc1ccc(C)c(OCc2ccccc2C(=NOC(C)C)c2ccon2)c1			<90%		Activity [6]: <90%
C=CCON=C(c1ccon1)c1ccccc1COc1cc(C)ccc1C			<90%		Activity [6]: <90%
CNC(=O)/C(=N/OC)c1ccccc1COc1cc(C)ccc1C					Activity (Oculimacula yallundae [7]): 66.5%; Activity (Oculimacula yallundae [8]): 20%; Activity (Oculimacula yallundae [9]): 36.7%; Activity [10]: 63%; Activity [11]: 13%; Activity [12]: 69%; Activity (Oculimacula yallundae [13]): 56%; Activity [15]: 15.5%; EC50 (Oculimacula yallundae [16]): 1.09 ppm
CON=C(c1ccon1)c1ccccc1COc1ccc(Cl)cc1	90%		90%		
CON=C(c1ccon1)c1ccccc1COc1ccccc1C	90%				Activity [14]: 90%; EC50 (Oculimacula yallundae [16]): 1.42 ppm
CON=C(c1ccon1)c1ccccc1COc1cccc(C)c1		90%		90%	

SMILES	Activity [2]	Activity [3]	Activity [4]	Activity [5]	further results
CON=C(c1ccon1)c1ccccc1COc1ccc(C)cc1	90%			90%	
CCc1ccccc1OCc1ccccc1C(=NOC)c1ccon1		90%		90%	
CON=C(c1ccon1)c1ccccc1COc1ccccc1OC			<90%		Activity [17]: 90%
CON=C(c1ccon1)c1ccccc1COc1ccccc1Br	90%			90%	
CON=C(c1ccon1)c1ccccc1COc1ccccc1C(F)(F)F		90%	90%		
CON=C(c1ccon1)c1ccccc1COc1ccccc1[N+](=O)[O-]			<90%		Activity [6]: <90%
CON=C(c1ccon1)c1ccccc1COc1ccc(F)cc1F	90%			90%	
CON=C(c1ccon1)c1ccccc1COc1cc(F)ccc1F		90%		90%	
CON=C(c1ccon1)c1ccccc1COc1ccc(Cl)cc1Cl	90%		<90%		
CON=C(c1ccon1)c1ccccc1Oc1ccccc1		90%	90%		
CON=C(c1ccon1)c1ccccc1OCc1ccccc1					Activity [17]: 90%
CON=C(c1ccon1)c1ccccc1COc1ccccc1		90%	90%		
CON=C(c1ccon1)c1ccccc1COc1ccc(F)cc1		90%	90%		
CON=C(c1ccon1)c1ccccc1COc1cccc(F)c1			90%		Activity [17]: 90%
CON=C(c1ccon1)c1ccccc1COc1ccccc1F		90%		90%	
CON=C(c1ccon1)c1ccccc1COc1ccccc1Cl	90%			90%	
CON=C(c1ccon1)c1ccccc1COc1cccc(Cl)c1		90%	90%		
CCCN(CCOc1c(Cl)cc(Cl)cc1Cl)C(=O)n1ccnc1 [PROCHLORAZ]					Activity (Oculimacula yallundae [7]): 63.5%; Activity (Oculimacula yallundae [8]): 23%; Activity (Oculimacula yallundae [9]): 28.3%; Activity (Oculimacula yallundae [13]): 66%; EC50 (Oculimacula yallundae [16]): 0.04 ppm
CC(C)(C)C(=O)C(Oc1ccc(Cl)cc1)n1cncn1 (stereo not drawn) [TRIADIMEFON]				97%	Activity [18]: 1.4%
